The nature of series [1]: solid-state stability of the crystal forms. The series is classed as physicochemical. The note with it: qualitative comparison of the forms identified.
The nature of series [2]: hygroscopicity of the crystal form. Format: physicochemical. The note with it: solid form, qualitative.

Take `CCc1nc2c(C)nc(C)cc2n1-c1ccc(CCNC(=O)NS(=O)(=O)c2ccc(C)cc2)cc1` [Crystal Form G, N-[({2-[4-(2-Ethyl-4,6-dimethyl-1H-imidazo[4,5-c]pyridin-1-yl)phenyl]ethyl}amino)carbonyl]-4-methylbenzenesulfonamide]: the “stability of the crystal form” value in series [1] is recorded as “less stable”.
For the compound `CCc1nc2c(C)nc(C)cc2n1-c1ccc(CCNC(=O)NS(=O)(=O)c2ccc(C)cc2)cc1` [Example 2, 2-ETHYL-4,6-DI METHYL-1-(4-{2-[({[(4-METHYLPHENYL)SULFONYL]AMINO}CARBONYL)AMINO]ETHYL}PHENYL)-1H-IMIDAZO[4,5-c]PYRIDINE, reference compound], the “stability of the crystal form” value in series [1] (listed as N-[({2-[4-(2-Ethyl-4,6-dimethyl-1H-imidazo[4,5-c]pyridin-1-yl)phenyl]ethyl}amino) is reported as “unstable”.
In the case of `CCc1nc2c(C)nc(C)cc2n1-c1ccc(CCNC(=O)NS(=O)(=O)c2ccc(C)cc2)cc1` [Crystal Form C, N-[({2-[4-(2-Ethyl-4,6-dimethyl-1H-imidazo[4,5-c]pyridin-1-yl)phenyl]ethyl}amino)carbonyl]-4-methylbenzenesulfonamide], the “stability of the crystal form” value in series [1] is recorded as “less stable”; in series [1] (listed as C), “(metastable)”.
`CCc1nc2c(C)nc(C)cc2n1-c1ccc(CCNC(=O)NS(=O)(=O)c2ccc(C)cc2)cc1` [Polymorph Form B, N-[({2-[4-(2-Ethyl-4,6-dimethyl-1H-imidazo[4,5-c]pyridin-1-yl)phenyl]ethyl}amino)carbonyl]-4-methylbenzenesulfonamide]: in series [1], the “stability of the crystal form” value is listed as “stable”.
`CCc1nc2c(C)nc(C)cc2n1-c1ccc(CCNC(=O)NS(=O)(=O)c2ccc(C)cc2)cc1` [Crystal Form D, N-[({2-[4-(2-Ethyl-4,6-dimethyl-1H-imidazo[4,5-c]pyridin-1-yl)phenyl]ethyl}amino)carbonyl]-4-methylbenzenesulfonamide]: the “stability of the crystal form” value in series [1] was “less stable”.
Take `CCc1nc2c(C)nc(C)cc2n1-c1ccc(CCNC(=O)NS(=O)(=O)c2ccc(C)cc2)cc1` [Polymorph Form A, N-[({2-[4-(2-Ethyl-4,6-dimethyl-1H-imidazo[4,5-c]pyridin-1-yl)phenyl]ethyl}amino)carbonyl]-4-methylbenzenesulfonamide]: the “stability of the crystal form” value in series [1] was “most stable”. For the same compound, the hygroscopicity entry in series [2] is reported as “non-hygroscopic”.
